Experimental data from US5591758A, “Organic nitrates, processes for their preparation and their use in the treatment of cardiovascular diseases” (Laboratoires Hoechst, SA, priority 1991, dated 1997).
Where a name gives a salt, the structure may show the parent alone.

Legend:
anesthetised dogs = experiment: Haemodynamic effects on anesthetised dogs; format: in vivo, dogs (labrador/harrier cross); conditions: dogs
Description: Haemodynamic effects of the compounds according to the invention on anesthetised pigs or dogs
The dogs, weighing between 16 and 26 kg, are the progeny of a labrador/harrier cross.
In the case of dogs the anesthesia is induced by sodium pentobarbitol (45 mg/jg i.v.) and maintained with an i.v. perfusion (flow rate of 8 mg/kg/h).
The pigs or dogs are placed under artificial respiration in ambient air. Analysis of the blood gases (pO2, pCO2) is carried out at regular intervals and oxygen can be supplied via the respirator, if necessary.
The haemodynamic parameters recorded include the left ventricular pressure (LVP; Millar PC350 Tip catheter inserted via the carotid artery), systemic blood pressure (BPs, BPd; full catheter in a femoral artery), the end pressure of the left ventricular diastole (LVEDP), the ventricular contractility (LVPdp/dtmax) and the heart rate (HR).
Following an equilibration period of the order of 45 minutes, the compounds studied are administered intraduodenally (i.d.) or intraveinously (i.v.) to several animals (1 to 4). The haemodynamic variables are recorded continuously for 1 to 3 hours, as a function of the period of action of the compound.
The effects of the compounds studied are shown as the absolute difference with respect to the base value (bv) measured before administration of the compounds and are shown in Table VII (a,b,c).
An antianginal activity is estimated by a fall in the BPs and the LVEDP (fall in venous return).

thoracic aorta = experiment: Vasorelaxant effect on isolated vessels (rat thoracic aorta rings without endothelium, precontracted with noradrenalin); design: species or system Wistar rats; conditions: for Emax: Rattus norvegicus, maximum inhibition of noradrenalin effect, 10^-8 to 10^-4 M substance, read-out: Maximum Relaxation; for IC50: rat aorta, 10^-7 M noradrenalin contraction
Description: Vasorelaxant effect of the compounds according to the invention on isolated vessels.
Adult Wistar rats weighing between 250 and 350 g are anaesthetised by intraperitoneal injection of sodium pentobarbital (30 mg/kg). The thoracic aorta is rapidly removed and placed in a refrigerated and oxygenated solution of bicarbonate buffer of the Krebs-Ringer type (composition [mM]: NaCl, 118; KCl, 4.7; CaCl2, 2.5; MgSO4, 1.2; KH2 PO4, 1.2; NaHCO3, 25.0; disodium calcium salt of EDTA, 0.026; glucose 11.1). The aorta is dissected with the aim of removing the connective tissue and then cut into 6 rings (length 5-10 mm). The endothelium is removed by moderate abrasion of the intimal surface of the aortic segments with the aid of a pair of tweezers. These segments are then placed between two hooks in an isolated organ cell filled with 25 ml of bicarbonate buffer (pH 7.4), thermostat-controlled at 37° C. and oxygenated with the aid of a 95% O2 /5% CO2 mixture (pH 7.4). One of the hooks is fixed to a fixed point, while the second is connected to a transducer with the aim of measuring the variations in isometric voltage (expressed in grams). After an equilibration period of 30 min., the segments are progressively withdrawn so as to attain the level of base voltage for which the contractor response to noradrenalin (10^-7 M) is maximum (optimum voltage; average 2 g). The absence of endothelium is verified by addition of a single concentration of acetylcholine (10^-6 M), after precontraction of the vessels by noradrenalin (10^-7 M). The integrity of the vascular smooth muscle is also verified by adding a single concentration of a vasodilator whose response is independent of the presence of the endothelium, SIN-1 (10^-5 M). After this initial procedure, the aortas are washed, equilibrated for a period of 30 min and then recontracted (10^-7 M noradrenalin). The relaxant effect of the substance to be tested is then evaluated by adding increasing concentrations of this substance (from 10^-8 to 10^-4 M). The maximum inhibition of the concentration caused by noradrenalin (expressed as a percentage) is then calculated ("maximum relaxation"). When this maximum relaxation is greater than 50%, the concentration of substance tested producing a 50% inhibition of the maximum contraction (IC50) is calculated. Table V below collates the IC50 and the maximum relaxation percentages for the various compounds tested.

| Compound | BPs (min), period of action (anesthetised dogs; 3 mg/kg i.d.) [min] | BPs, difference to base value (anesthetised dogs; 3 mg/kg i.d.) [mmHg] | LVEDP (min), period of action (anesthetised dogs; 3 mg/kg i.d.) [min] | LVEDP, difference to base value (anesthetised dogs; 3 mg/kg i.d.) | Emax (thoracic aorta) [%] | IC50 (thoracic aorta) [µM] | also measured |
| --- | --- | --- | --- | --- | --- | --- | --- |
| CC(C)(C)OC(=O)NCC(=O)N[C@H]1CO[C@H]2[C@@H]1OC[C@H]2O[N+](=O)[O-] [Compound 15, N-[(t-Butoxy)carbonyl]glycine amide of 2-amino-2-deoxy-5-O-nitro-1,4:3,6-dianhydro-D-glucitol] | > 180 | -20 | > 180 | -3,0 mmHg | 58 | 60 | – |
| CC(C)(C)OC(=O)N1CSC[C@H]1C(=O)N[C@@H](Cc1ccccc1)C(=O)N[C@H]1CO[C@H]2[C@@H]1OC[C@@H]2O[N+](=O)[O-] [Compound 65, 5-[[2-[[(3-t-butoxycarbonyl-4-L-thiazolidinyl)carbonyl]amino]-1-((2S)-2-benzyl)-oxoethyl]amino]-5-deoxy-2-O-nitro-1,4:3,6-dianhydro-L-iditol] | 0 | 0 | 30 | 1,0 mmHg | 100 | 20 | – |
| O=C(N[C@H]1CO[C@H]2[C@@H]1OC[C@@H]2O[N+](=O)[O-])[C@@H]1CSCN1C(=O)[C@@H]1CSCN1 [Compound 78, 5-[[[(4R)-N-[(4-L-thiazolidinyl)carbonyl]-4-thiazolidinyl]carbonyl]amino]-5-deoxy-2-O-nitro-1,4:3,6-dianhydro-L-iditol monohydrochloride] | 150 | -13 | 90 | -1,0 mmHg | 89 | 20 | – |
| O=C(N[C@H]1CO[C@H]2[C@@H]1OC[C@@H]2O[N+](=O)[O-])[C@@H]1CCCN1C(=O)[C@@H]1CSCN1 [Compound 70, 5-[[[(2S)-N-[(4-L-thiazolidinyl)carbonyl]-2-pyrrolidinyl]carbonyl]amino]-5-deoxy-2-O-nitro-1,4:3,6-dianhydro-L-iditol monohydrochloride] | > 90 | -30 | 0 | 0,0 mmHg | 83 | 35 | – |
| C[C@H](NC(=O)OC(C)(C)C)C(=O)N[C@H]1CO[C@H]2[C@@H]1OC[C@@H]2O[N+](=O)[O-] [Compound 7, N-[(t-Butoxy)carbonyl]-L-alanine amide of 5-amino-5-deoxy-2-O-nitro-1,4:3,6-dianhydro-L-iditol] | – | – | – | – | 96 | 17 | BPs (min), period of action (anesthetised dogs; 3 mg/kg i.v.): > 90 min; BPs, difference to base value (anesthetised dogs; 3 mg/kg i.v.): -20 mmHg; LVEDP (min), period of action (anesthetised dogs; 3 mg/kg i.v.): > 90 min; LVEDP, difference to base value (anesthetised dogs; 3 mg/kg i.v.): -2,0 mmHg |
| CC(C)[C@H](NC(=O)[C@@H]1CSCN1)C(=O)N[C@H]1CO[C@H]2[C@@H]1OC[C@@H]2O[N+](=O)[O-] [Compound 64, 5-[[2-[[(4-L-thiazolidinyl)carbonyl]amino]-1-((2S)-2-isopropyl)-oxoethyl]amino]-5-deoxy-2-O-nitro-1,4:3,6-dianhydro-L-iditol monohydrochloride] | > 180 | -25 | 150 | -2,0 mmHg | 84 | 51 | – |
| CC(C)(C)OC(=O)N1CSC[C@H]1C(=O)NCC(=O)N[C@H]1CO[C@H]2[C@@H]1OC[C@@H]2O[N+](=O)[O-] [Compound 60] | > 60 | -15 | 0 | 0,0 mmHg | 53 | 87 | – |
| CC(C)(C)OC(=O)N[C@@H](Cc1ccccc1)C(=O)N[C@H]1CO[C@H]2[C@@H]1OC[C@@H]2O[N+](=O)[O-] [Compound 11, N-[(t-Butoxy)carbonyl]-L-phenylalanine amide of 5-amino-5-deoxy-2-O-nitro-1,4:3,6-dianhydro-L-iditol] | – | – | – | – | 100 | 25 | BPs (min), period of action (anesthetised dogs; 3 mg/kg i.v.): > 30 min; BPs, difference to base value (anesthetised dogs; 3 mg/kg i.v.): -10 mmHg; LVEDP (min), period of action (anesthetised dogs; 3 mg/kg i.v.): 0 min; LVEDP, difference to base value (anesthetised dogs; 3 mg/kg i.v.): 0,0 mmHg |
| CC(C)[C@H](NC(=O)[C@@H]1CSCN1C(=O)OC(C)(C)C)C(=O)N[C@H]1CO[C@H]2[C@@H]1OC[C@@H]2O[N+](=O)[O-] [Compound 63, 5-[[2-[[(3-t-butoxycarbonyl-4-L-thiazolidinyl)carbonyl]amino]-1-((2S)-2-isopropyl)-oxoethyl]amino]-5-deoxy-2-O-nitro-1,4:3,6-dianhydro-L-iditol] | – | – | – | – | 70 | 70 | BPs (min), period of action (anesthetised dogs; 3 mg/kg i.v.): > 60 min; BPs, difference to base value (anesthetised dogs; 3 mg/kg i.v.): -20 mmHg; LVEDP (min), period of action (anesthetised dogs; 3 mg/kg i.v.): 60 min; LVEDP, difference to base value (anesthetised dogs; 3 mg/kg i.v.): -1,0 mmHg |
| O=C(O[C@@H]1CO[C@H]2[C@@H]1OC[C@@H]2O[N+](=O)[O-])[C@@H]1CSCN1 [Compound 25, 5-O-[(4-L-Thiazolidinyl)carbonyl]-2-O-nitro-1,4:3,6-dianhydro-D-glucitol monohydrochloride] | – | – | – | – | 35 | > 100 | BPs (min), period of action (anesthetised dogs; 10 mg/kg i.d.): > 60 min; BPs, difference to base value (anesthetised dogs; 10 mg/kg i.d.): -30 mmHg; LVEDP (min), period of action (anesthetised dogs; 10 mg/kg i.d.): > 60 min; LVEDP, difference to base value (anesthetised dogs; 10 mg/kg i.d.): -3,0 mmHg |
| CC(C)(C)OC(=O)N1CSC[C@H]1C(=O)O[C@H]1CO[C@H]2[C@@H]1OC[C@H]2O[N+](=O)[O-] [Compound 18, 2-O-[(3-t-Butoxycarbonyl-4-L-thiazolidinyl)carbonyl]-5-O-nitro-1,4:3,6-dianhydro-D-glucitol] | – | – | – | – | 75 | 72 | BPs (min), period of action (anesthetised dogs; 10 mg/kg i.v.): > 30 min; BPs, difference to base value (anesthetised dogs; 10 mg/kg i.v.): -10 mmHg; LVEDP (min), period of action (anesthetised dogs; 10 mg/kg i.v.): > 30 min; LVEDP, difference to base value (anesthetised dogs; 10 mg/kg i.v.): 3,0 mmHg |
| C[C@H](NC(=O)[C@@H]1CSCN1C(=O)OC(C)(C)C)C(=O)N[C@H]1CO[C@H]2[C@@H]1OC[C@@H]2O[N+](=O)[O-] [Compound 61, 5-[[2-[[(3-t-butoxycarbonyl-4-n-thiazolidinyl)carbonyl]amino]-1-((2S)-2-methyl)-oxoethyl]amino]-5-deoxy-2-O-nitro-1,4:3,6-dianhydro-L-iditol] | > 180 | -25 | > 180 | -1,5 mmHg | 100 | 32 | – |
| C[C@H](N)C(=O)N[C@H]1CO[C@H]2[C@@H]1OC[C@@H]2O[N+](=O)[O-] [Compound 8, L-Alanine amide of 5-amino-5-deoxy-2-O-nitro-1,4:3,6-dianhydro-L-iditol monohydrochloride] | > 150 | -30 | – | – | 80 | 32 | – |
| O=C(O[C@H]1CO[C@H]2[C@@H]1OC[C@H]2O[N+](=O)[O-])[C@@H]1CSCN1 [Compound 19, 2-O-[(4-L-Thiazolidinyl)carbonyl]-5-O-nitro-1,4:3,6-dianhydro-D-glucitol monohydrochloride] | – | – | – | – | 40 | > 100 | BPs (min), period of action (anesthetised dogs; 10 mg/kg i.v.): > 60 min; BPs, difference to base value (anesthetised dogs; 10 mg/kg i.v.): -35 mmHg; LVEDP (min), period of action (anesthetised dogs; 10 mg/kg i.v.): 0 min; LVEDP, difference to base value (anesthetised dogs; 10 mg/kg i.v.): 0,0 mmHg |
| NCC(=O)N[C@H]1CO[C@H]2[C@@H]1OC[C@H]2O[N+](=O)[O-] [Compound 16, Glycine amide of 2-amino-2-deoxy-5-O-nitro-1,4:3,6-dianhydro-D-glucitol monohydrochloride] | – | – | – | – | 41 | > 100 | BPs (min), period of action (anesthetised dogs; 10 mg/kg i.v.): > 30 min; BPs, difference to base value (anesthetised dogs; 10 mg/kg i.v.): -5 mmHg; LVEDP (min), period of action (anesthetised dogs; 10 mg/kg i.v.): > 30 min; LVEDP, difference to base value (anesthetised dogs; 10 mg/kg i.v.): -1,0 mmHg |
